Experimental data reported in ChEMBL document CHEMBL1909046, “DrugMatrix in vitro pharmacology data”.
Where a SMILES comes first, the peptide text is derived from it. Bridges are numbered along the chain shown (N, C = ends). [ ]: non-standard residue; d: D form. The star is where a group is joined. Threoninol(2S,3R) = C[C@@H](O)[C@H](CO)N*

Legend:
[1] = target: Beta-2 adrenergic receptor (Homo sapiens, UniProt P07550); experiment: DRUGMATRIX: Adrenergic beta2 radioligand binding (ligand: [3H] CGP-12177); assay type: cell membranes, Membrane; conditions: cho; Not Active = under 50% inhibition at 10 µM
Beta-2 adrenergic receptor, sequence (P07550 whole entry): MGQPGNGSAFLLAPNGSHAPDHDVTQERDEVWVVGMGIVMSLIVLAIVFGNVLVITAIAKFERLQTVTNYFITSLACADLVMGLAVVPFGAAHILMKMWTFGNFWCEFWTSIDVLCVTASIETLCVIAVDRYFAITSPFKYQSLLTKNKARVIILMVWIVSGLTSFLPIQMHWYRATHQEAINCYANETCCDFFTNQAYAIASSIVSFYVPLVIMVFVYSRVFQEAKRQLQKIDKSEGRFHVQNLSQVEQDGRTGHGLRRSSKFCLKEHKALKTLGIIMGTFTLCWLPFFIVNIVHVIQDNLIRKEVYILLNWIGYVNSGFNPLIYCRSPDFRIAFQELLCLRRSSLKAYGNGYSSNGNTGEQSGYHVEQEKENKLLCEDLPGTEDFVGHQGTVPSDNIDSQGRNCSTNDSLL

Cytochrome P450 1A2 = target: T1, Cytochrome P450 1A2 (Homo sapiens, UniProt P05177); conditions: bti-tn-5b1-4; also: in other assays of this panel Not Active means under 50% inhibition at 10 µM
T1 sequence (P05177 whole entry): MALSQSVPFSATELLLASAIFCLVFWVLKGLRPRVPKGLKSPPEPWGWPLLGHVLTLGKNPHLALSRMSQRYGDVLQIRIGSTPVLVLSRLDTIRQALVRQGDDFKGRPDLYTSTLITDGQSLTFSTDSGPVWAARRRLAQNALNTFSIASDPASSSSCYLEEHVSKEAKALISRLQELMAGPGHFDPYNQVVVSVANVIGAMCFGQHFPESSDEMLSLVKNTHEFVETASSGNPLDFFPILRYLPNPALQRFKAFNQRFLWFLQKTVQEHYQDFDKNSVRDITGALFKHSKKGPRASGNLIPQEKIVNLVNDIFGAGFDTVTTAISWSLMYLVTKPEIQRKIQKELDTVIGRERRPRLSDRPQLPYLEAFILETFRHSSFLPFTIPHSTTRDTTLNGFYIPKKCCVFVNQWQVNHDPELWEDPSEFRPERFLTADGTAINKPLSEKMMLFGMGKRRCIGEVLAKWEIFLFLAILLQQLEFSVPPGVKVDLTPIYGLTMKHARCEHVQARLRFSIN

[2] = DRUGMATRIX: Calcium Channel Type L, Dihydropyridine radioligand binding (ligand: [3H] Nitrendipine); assay type: cell membranes, Rattus norvegicus, Wistar, Cerebral cortex, Membrane; conditions: Not Active = under 50% inhibition at 10 µM
Cytochrome P450 2E1 = Cytochrome P450 2E1 (Homo sapiens, UniProt P05181); conditions: bti-tn-5b1-4; also: in other assays of this panel Not Active means under 50% inhibition at 10 µM
Cytochrome P450 2E1, sequence (P05181 whole entry): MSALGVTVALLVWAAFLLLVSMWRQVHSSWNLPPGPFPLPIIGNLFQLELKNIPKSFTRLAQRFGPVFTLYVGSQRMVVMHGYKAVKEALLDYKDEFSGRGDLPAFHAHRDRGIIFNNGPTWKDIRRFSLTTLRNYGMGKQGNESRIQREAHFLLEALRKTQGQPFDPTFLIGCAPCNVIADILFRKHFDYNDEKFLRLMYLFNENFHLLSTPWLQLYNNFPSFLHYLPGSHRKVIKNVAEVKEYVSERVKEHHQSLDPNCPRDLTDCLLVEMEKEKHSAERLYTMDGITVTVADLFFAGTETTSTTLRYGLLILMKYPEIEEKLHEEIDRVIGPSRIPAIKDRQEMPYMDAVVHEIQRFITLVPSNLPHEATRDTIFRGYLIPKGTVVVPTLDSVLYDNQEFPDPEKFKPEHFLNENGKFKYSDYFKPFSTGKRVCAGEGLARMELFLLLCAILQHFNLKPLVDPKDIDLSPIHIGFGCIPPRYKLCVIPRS

[3] = target: T2, Neuropeptide Y receptor type 1 (Homo sapiens, UniProt P25929); assay type: cell membranes, Membrane; conditions: sk-n-mc; also: in other assays of this panel Not Active means under 50% inhibition at 10 µM
T2 sequence (P25929 whole entry): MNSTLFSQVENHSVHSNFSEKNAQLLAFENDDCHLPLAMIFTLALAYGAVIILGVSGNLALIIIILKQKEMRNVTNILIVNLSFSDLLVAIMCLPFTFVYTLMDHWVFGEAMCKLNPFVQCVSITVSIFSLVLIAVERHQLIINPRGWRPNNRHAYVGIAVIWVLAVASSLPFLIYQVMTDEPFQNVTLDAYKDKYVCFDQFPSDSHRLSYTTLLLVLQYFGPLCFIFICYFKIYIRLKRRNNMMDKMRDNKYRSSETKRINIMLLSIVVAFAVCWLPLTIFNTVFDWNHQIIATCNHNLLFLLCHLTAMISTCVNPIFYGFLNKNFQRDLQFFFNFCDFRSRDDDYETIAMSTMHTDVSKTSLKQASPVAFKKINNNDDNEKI

[4] = DRUGMATRIX: Sodium/nucleoside co-transporter radioligand binding (ligand: nitrobenzylthioinosine); assay type: cell membranes, Cavia porcellus, Dunkin-Hartley, Cerebral cortex, Membrane; conditions: Not Active = under 50% inhibition at 10 µM
[5] = DRUGMATRIX: Glutamate, Kainate radioligand binding (ligand: [3H] Kainic acid); assay type: cell membranes, Rattus norvegicus, Wistar, Brain, Membrane; conditions: Not Active = under 50% inhibition at 10 µM
[6] = DRUGMATRIX: Interleukin IL-1 radioligand binding (ligand: [125I] interleukin 1beta); assay type: cell membranes, Membrane; conditions: nih3t3; Not Active = under 50% inhibition at 10 µM
[7] = DRUGMATRIX: Leukotriene, BLT (LTB4) radioligand binding (ligand: [3H]LTB4); assay type: cell membranes, Membrane; conditions: u-937; Not Active = under 50% inhibition at 10 µM

C[C@@H](O)[C@H](CO)NC(=O)[C@@H]1CSSC[C@H](NC(=O)[C@H](N)Cc2ccccc2)C(=O)N[C@@H](Cc2ccccc2)C(=O)N[C@H](Cc2c[nH]c3ccccc23)C(=O)N[C@@H](CCCCN)C(=O)N[C@@H]([C@@H](C)O)C(=O)N1 (H-[dF]CF[dW]KTC-{Threoninol(2S,3R)}; disulfide 2-7)
Not Active: IC50 [1] | IC50 (Cytochrome P450 1A2) | Ki (Cytochrome P450 1A2) | IC50 [2] | Ki [2] | IC50 (Cytochrome P450 2E1) | Ki (Cytochrome P450 2E1) | IC50 [3] | IC50 [4] | Ki [4] | IC50 [5] | Ki [5] | IC50 [6] | Ki [6] | IC50 [7] | Ki [7]

C[C@](O)(CS(=O)(=O)c1ccc(F)cc1)C(=O)Nc1ccc(C#N)c(C(F)(F)F)c1 [(R)-BICALUTAMIDE]
Not Active: IC50 [1] | IC50 (Cytochrome P450 1A2) | Ki (Cytochrome P450 1A2) | IC50 [2] | Ki [2] | IC50 (Cytochrome P450 2E1) | Ki (Cytochrome P450 2E1) | IC50 [3] | IC50 [4] | Ki [4] | IC50 [5] | Ki [5] | IC50 [6] | Ki [6] | IC50 [7] | Ki [7]

CC(=O)Nc1ccc(O)cc1 [ACETAMINOPHEN]
Not Active: IC50 [1] | IC50 (Cytochrome P450 1A2) | Ki (Cytochrome P450 1A2) | IC50 [2] | Ki [2] | IC50 (Cytochrome P450 2E1) | Ki (Cytochrome P450 2E1) | IC50 [3] | IC50 [4] | Ki [4] | IC50 [5] | Ki [5] | IC50 [6] | Ki [6] | IC50 [7] | Ki [7]

COc1cc2c(c3oc(=O)c4c(c13)CCC4=O)[C@@H]1C=CO[C@@H]1O2 [AFLATOXIN]
Not Active: IC50 [1] | Ki [1] | IC50 (Cytochrome P450 1A2) | Ki (Cytochrome P450 1A2) | IC50 [2] | Ki [2] | IC50 (Cytochrome P450 2E1) | Ki (Cytochrome P450 2E1) | IC50 [3] | Ki [3] | IC50 [4] | Ki [4] | IC50 [5] | Ki [5] | IC50 [6] | Ki [6] | IC50 [7] | Ki [7]

N=C(N)NC(=O)c1nc(Cl)c(N)nc1N [AMILORIDE]
Not Active: IC50 [1] | IC50 (Cytochrome P450 1A2) | Ki (Cytochrome P450 1A2) | IC50 [2] | Ki [2] | IC50 (Cytochrome P450 2E1) | Ki (Cytochrome P450 2E1) | IC50 [3] | IC50 [4] | Ki [4] | IC50 [5] | Ki [5] | IC50 [6] | Ki [6] | IC50 [7] | Ki [7]

Cc1cc(=O)n(-c2ccccc2)n1C [ANTIPYRINE]
Not Active: IC50 [1] | IC50 (Cytochrome P450 1A2) | Ki (Cytochrome P450 1A2) | IC50 [2] | Ki [2] | IC50 (Cytochrome P450 2E1) | Ki (Cytochrome P450 2E1) | IC50 [3] | IC50 [4] | Ki [4] | IC50 [5] | Ki [5] | IC50 [6] | Ki [6] | IC50 [7] | Ki [7]

CN1C(=O)COc2c(C(=O)NC3CN4CCC3CC4)cc(Cl)cc21 (centres undefined) [AZASETRON]
Not Active: IC50 [1] | IC50 (Cytochrome P450 1A2) | Ki (Cytochrome P450 1A2) | IC50 [2] | Ki [2] | IC50 (Cytochrome P450 2E1) | Ki (Cytochrome P450 2E1) | IC50 [3] | IC50 [4] | Ki [4] | IC50 [5] | Ki [5] | IC50 [6] | Ki [6] | IC50 [7] | Ki [7]
